Consider five molecules from patent publication US10407467B2, “Polymyxin derivatives and their use in combination therapy together with different antibiotics” (priority 2013, dated 2019).

Counter-ions that a name gives are not always drawn. Bridge positions count the residues as written; N and C are the ends. Square brackets hold non-standard residues; d marks the D form. Peptide text beside a SMILES is read from it. * marks the point of attachment. ξ: configuration not given here. ξHexahydromandeloyl = O=C(C(O)C1CCCCC1)*; Cyclohexylacetyl = O=C(CC1CCCCC1)*; Thr(3ξ) = CC(O)[C@H](N)C(=O)O; Octanoyl = CCCCCCCC(=O)*; Dab = NCC[C@H](N)C(=O)O; X4 = NC1CCCC1C(=O)*

Common to all, as to assay: MIC, compound in combination with a second agent (broth microdilution)
Holding throughout (format): cell-based

The subject of one assay is Acinetobacter baumannii. The conditions noted are these: 1:1 (wt:wt) combination with Rifampicin. The procedure, abridged: (§1)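 Compound and second agent (e.g. rifampicin) were combined 1:1 w/w, compound weighed as its TFA or sulphate salt. Inoculum was a direct colony suspension from 18-24 hour Mueller-Hinton agar at 0.5 McFarland. MIC is the total drug concentration; lower of duplicates reported, modal value when tested repeatedly.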

The test system of another assay is Escherichia coli. The conditions noted are these: 1:1 (wt:wt) combination with Rifampicin. The method in brief: as §1
The subject of another assay is Klebsiella pneumoniae. The conditions noted are these: for MIC K. pneumoniae ATCC 4352: strain ATCC 4352. The method in brief:
as §1

For the next assay, the system named is Pseudomonas aeruginosa. The conditions noted are these: 1:1 (wt:wt) combination with Rifampicin. The method in brief:
as §1

[1] abbreviates: MIC = total drug concentration, strain ATCC BAA-747.
[2] abbreviates: MIC = total drug concentration, strain CCUG57249.
Where [3] appears, read: MIC = total drug concentration, strain NCTC 13423.
Setting [4] is: MIC = total drug concentration, strain NCTC 13424.
Where [5] appears, read: MIC = total drug concentration, strain ATCC25922.
Setting [6] is: MIC = total drug concentration, strain NCTC9001.
The mark [7] stands for this setting: 1:1 (wt:wt) combination with Rifampicin, MIC = total drug concentration.
[8] abbreviates: 1:1 (wt:wt) combination with Rifampicin, MIC = total drug concentration, strain ATCC-BAA-2146.
[9] abbreviates: 1:1 (wt:wt) combination with Rifampicin, MIC = total drug concentration, strain CCUG-59348.
Setting [10] is: MIC = total drug concentration, strain ATCC 27853.
Where [11] appears, read: MIC = total drug concentration, strain ATCC CRM-9027.
The mark [12] stands for this setting: MIC = total drug concentration, strain ATCC-47.
Where [13] appears, read: MIC = total drug concentration, strain CCUG 59626.
[14] abbreviates: MIC is total drug concentration.
Where [15] appears, read: 1:1 (wt:wt) combination with Rifampicin, MIC is total drug concentration.
The mark [16] stands for this setting: Ratio of Compound to Rifampicin 1:1, total drug concentration.
Where [17] appears, read: Ratio of Compound to Rifampicin 1:3, total drug concentration.
Setting [18] is: Ratio of Compound to Rifampicin 3:1, total drug concentration.

As for `CC(C)C[C@@H]1NC(=O)[C@@H](Cc2ccccc2)NC(=O)[C@H](CCN)NC(=O)[C@@H](NC(=O)[C@@H](CO)NC(=O)[C@@H](NC(=O)C2CCCC2N)C(C)O)CCNC(=O)[C@H](C(C)O)NC(=O)[C@H](CCN)NC(=O)[C@H](CCN)NC1=O` (stereo partly drawn) [Example 44, [2-Amino-cyclopentane-carbonyl]-L-Thr-D-Ser-polymyxin B hepatapeptide, TFA salt] (X4-[Thr(3ξ)][dS][Dab][Dab][dF]L[Dab][Dab][Thr(3ξ)]; lactam 3-C), the “MIC A. baumannii ATCC BAA-747” value in the assay with Acinetobacter baumannii (setting [1]) is reported as 0.25 micrograms/mL. In addition, the “MIC A. baumannii CCUG57249” value in the assay on Acinetobacter baumannii (setting [2]) came to 0.125 micrograms/mL. The “MIC A. baumannii NCTC 13423” value in the assay on Acinetobacter baumannii (setting [3]) is 0.125 micrograms/mL. Also, the “MIC A. baumannii NCTC 13424” value in the assay on Acinetobacter baumannii (setting [4]) amounted to 0.125 micrograms/mL. In addition, in the assay on Escherichia coli (setting [5]), the “MIC E. coli ATCC25922” value amounted to 0.125 micrograms/mL. In the assay on Escherichia coli (setting [6]), the “MIC E. coli NCTC9001” value worked out at 0.5 micrograms/mL. In addition, the “MIC K. pneumoniae ATCC 4352” value in the assay on Klebsiella pneumoniae (setting [7]) is recorded as 0.125 micrograms/mL. The “MIC K. pneumoniae ATCC-BAA-2146” value in the assay with Klebsiella pneumoniae (setting [8]) was determined as 1 micrograms/mL. Also, in the assay with Klebsiella pneumoniae (setting [9]), the “MIC K. pneumoniae CCUG-59348” value is given as 4 micrograms/mL. The “MIC P. aeruginosa ATCC 27853” value in the assay on Pseudomonas aeruginosa (setting [10]) came out at 0.5 micrograms/mL. For the same molecule, in the assay on Pseudomonas aeruginosa (setting [11]), the “MIC P. aeruginosa ATCC CRM-9027” value is reported as 0.5 micrograms/mL. In addition, the “MIC P. aeruginosa ATCC-47” value with Pseudomonas aeruginosa (setting [12]) amounted to 1 micrograms/mL. For the same molecule, the “MIC P. aeruginosa CCUG 59626” value in the assay on Pseudomonas aeruginosa (setting [13]) is given as 0.5 micrograms/mL.

As to `CC(C)C[C@@H]1NC(=O)[C@@H](Cc2ccccc2)NC(=O)[C@H](CCN)NC(=O)[C@@H](NC(=O)[C@@H](CO)NC(=O)[C@@H](NC(=O)C(O)C2CCCCC2)C(C)O)CCNC(=O)[C@H](C(C)O)NC(=O)[C@H](CCN)NC(=O)[C@H](CCN)NC1=O` (stereo partly drawn) [Example 46, [2-cyclohexyl-2-hydroxyethanoyl]-L-Thr-D-Ser-polymyxin B heptapeptide, TFA salt] (ξHexahydromandeloyl-[Thr(3ξ)][dS][Dab][Dab][dF]L[Dab][Dab][Thr(3ξ)]; lactam 3-C), the “MIC A. baumannii ATCC BAA-747” value in the assay with Acinetobacter baumannii (setting [1]) is listed as ≤0.06 micrograms/mL. The “MIC A. baumannii CCUG57249” value with Acinetobacter baumannii (setting [2]) is on record as 0.125 micrograms/mL. Moreover, the “MIC A. baumannii NCTC 13423” value in the assay with Acinetobacter baumannii (setting [3]) amounted to 0.125 micrograms/mL. Also, the “MIC A. baumannii NCTC 13424” value in the assay on Acinetobacter baumannii (setting [4]) was ≤0.06 micrograms/mL. Moreover, the “MIC E. coli ATCC25922” value with Escherichia coli (setting [5]) was 0.125 micrograms/mL. The “MIC E. coli NCTC9001” value with Escherichia coli (setting [6]) is on record as 0.25 micrograms/mL. The “MIC K. pneumoniae ATCC 4352” value with Klebsiella pneumoniae (setting [7]) stood at 0.125 micrograms/mL. In addition, the “MIC K. pneumoniae ATCC-BAA-2146” value in the assay on Klebsiella pneumoniae (setting [8]) is recorded as 1 micrograms/mL. Further, the “MIC K. pneumoniae CCUG-59348” value in the assay on Klebsiella pneumoniae (setting [9]) is reported as 2 micrograms/mL. In addition, the “MIC P. aeruginosa ATCC 27853” value with Pseudomonas aeruginosa (setting [10]) was found to be 1 micrograms/mL. Further, the “MIC P. aeruginosa ATCC CRM-9027” value in the assay with Pseudomonas aeruginosa (setting [11]) is on record as 1 micrograms/mL. In the assay on Pseudomonas aeruginosa (setting [12]), the “MIC P. aeruginosa ATCC-47” value amounted to 2 micrograms/mL. In the assay with Pseudomonas aeruginosa (setting [13]), the “MIC P. aeruginosa CCUG 59626” value is 1 micrograms/mL.

Consider `CCCCCCCC(=O)N[C@H](C(=O)N[C@H](CO)C(=O)N[C@H]1CCNC(=O)[C@H](C(C)O)NC(=O)[C@H](CCN)NC(=O)[C@H](CCN)NC(=O)[C@H](CC(C)C)NC(=O)[C@@H](Cc2ccccc2)NC(=O)[C@H](CCN)NC1=O)C(C)O` (some centres unmarked) [Example C1, NAB-739 TFA salt, reference compound] (Octanoyl-[Thr(3ξ)][dS][Dab][Dab][dF]L[Dab][Dab][Thr(3ξ)]; lactam 3-C), for which the “MIC A. baumannii ATCC BAA-747” value in the assay on Acinetobacter baumannii (setting [1]) is 0.5 micrograms/mL. Besides, the “MIC A. baumannii CCUG57249” value with Acinetobacter baumannii (setting [2]) turned out to be 0.5 micrograms/mL. The “MIC A. baumannii NCTC 13423” value in the assay with Acinetobacter baumannii (setting [3]) was determined as 0.5 micrograms/mL. Moreover, the “MIC A. baumannii NCTC 13424” value with Acinetobacter baumannii (setting [4]) came out at 0.5 micrograms/mL. The “MIC E. coli ATCC25922” value with Escherichia coli (setting [5]) is 0.5 micrograms/mL. Besides, the “MIC E. coli NCTC9001” value in the assay on Escherichia coli (setting [6]) is 1 micrograms/mL. Besides, in the assay with Klebsiella pneumoniae (setting [7]), the “MIC K. pneumoniae ATCC 4352” value worked out at 0.5 micrograms/mL. The “MIC K. pneumoniae ATCC-BAA-2146” value in the assay on Klebsiella pneumoniae (setting [8]) came to 2 micrograms/mL. Further, the “MIC K. pneumoniae CCUG-59348” value in the assay on Klebsiella pneumoniae (setting [9]) was found to be 4 micrograms/mL. Besides, the “MIC P. aeruginosa ATCC 27853” value in the assay on Pseudomonas aeruginosa (setting [10]) came out at 2 micrograms/mL. For the same molecule, the “MIC P. aeruginosa ATCC CRM-9027” value in the assay with Pseudomonas aeruginosa (setting [11]) came to 2 micrograms/mL. Also, the “MIC P. aeruginosa ATCC-47” value in the assay with Pseudomonas aeruginosa (setting [12]) was 4 micrograms/mL. Moreover, the “MIC P. aeruginosa CCUG 59626” value with Pseudomonas aeruginosa (setting [13]) is given as 2 micrograms/mL.

`CC(C)C[C@@H]1NC(=O)[C@@H](Cc2ccccc2)NC(=O)[C@H](CCN)NC(=O)[C@@H](NC(=O)[C@H](CCN)NC(=O)[C@@H](NC(=O)CC2CCCCC2)C(C)O)CCNC(=O)[C@H](C(C)O)NC(=O)[C@H](CCN)NC(=O)[C@H](CCN)NC1=O` (some centres unmarked) [Example C4, Cyclohexyl ethanoyl polymyxin B nonapeptide, TFA salt, reference compound] (Cyclohexylacetyl-[Thr(3ξ)][Dab][Dab][Dab][dF]L[Dab][Dab][Thr(3ξ)]; lactam 3-C): in the assay on Acinetobacter baumannii (setting [14]), the “MIC A. baumannii ATCC BAA-747” value came out at 0.25 micrograms/mL, the “MIC A. baumannii CCUG57249” value is on record as 0.25 micrograms/mL, the “MIC A. baumannii NCTC 13423” value was 0.125 micrograms/mL and the “MIC A. baumannii NCTC 13424” value is listed as 0.25 micrograms/mL. In the assay with Escherichia coli (setting [14]), the “MIC E. coli ATCC25922” value is recorded as 0.25 micrograms/mL and the “MIC E. coli NCTC9001” value is listed as 0.5 micrograms/mL. In the assay on Klebsiella pneumoniae (setting [15]), the “MIC K. pneumoniae ATCC-BAA-2146” value was 1 micrograms/mL, the “MIC K. pneumoniae CCUG-59348” value amounted to 2 micrograms/mL and the “MIC K. pneumoniae NCTC 13438” value came to 0.5 micrograms/mL. Moreover, in the assay on Pseudomonas aeruginosa (setting [14]), the “MIC P. aeruginosa ATCC 27853” value amounted to 0.5 micrograms/mL, the “MIC P. aeruginosa ATCC CRM-9027” value was determined as 0.5 micrograms/mL, the “MIC P. aeruginosa ATCC-47” value is 1 micrograms/mL and the “MIC P. aeruginosa CCUG 59626” value came to 0.25 micrograms/mL.

For “Polymyxin B nonapeptide [PMBN, reference compound]”, the “MIC A. baumannii ATCC BAA-747” value in the assay with Acinetobacter baumannii (setting [1]) worked out at 0.25 micrograms/mL. For the same molecule, the “MIC A. baumannii CCUG57249” value in the assay with Acinetobacter baumannii (setting [2]) is 1 micrograms/mL. Also, the “MIC A. baumannii NCTC 13423” value in the assay with Acinetobacter baumannii (setting [3]) was determined as 0.5 micrograms/mL. In the assay with Acinetobacter baumannii (setting [4]), the “MIC A. baumannii NCTC 13424” value is recorded as 0.5 micrograms/mL. Also, the “MIC E. coli ATCC25922” value with Escherichia coli (setting [5]) was found to be 0.5 micrograms/mL. The “MIC E. coli NCTC9001” value in the assay with Escherichia coli (setting [6]) is on record as 1 micrograms/mL. The “MIC K. pneumoniae ATCC 4352” value with Klebsiella pneumoniae (setting [7]) worked out at 0.25 micrograms/mL. In addition, the “MIC K. pneumoniae ATCC-BAA-2146” value is given as 1 micrograms/mL with Klebsiella pneumoniae (setting [8]), 2 micrograms/mL with Klebsiella pneumoniae (setting [16]), 2 micrograms/mL in the assay with Klebsiella pneumoniae (setting [17]) and 2 micrograms/mL in the assay on Klebsiella pneumoniae (setting [18]). Also, the “MIC K. pneumoniae CCUG-59348” value with Klebsiella pneumoniae (setting [9]) is 4 micrograms/mL; in the assay on Klebsiella pneumoniae (setting [16]) it was 4 micrograms/mL; with Klebsiella pneumoniae (setting [17]), 4 micrograms/mL; with Klebsiella pneumoniae (setting [18]) it was 8 micrograms/mL. For the same molecule, the “MIC K. pneumoniae NCTC 13438” value in the assay on Klebsiella pneumoniae (setting [16]), in the assay on Klebsiella pneumoniae (setting [17]) and in the assay on Klebsiella pneumoniae (setting [18]) was 2 micrograms/mL throughout. In the assay with Pseudomonas aeruginosa (setting [10]), the “MIC P. aeruginosa ATCC 27853” value came out at 0.125 micrograms/mL. The “MIC P. aeruginosa ATCC CRM-9027” value with Pseudomonas aeruginosa (setting [11]) is 0.125 micrograms/mL. Further, the “MIC P. aeruginosa ATCC-47” value in the assay on Pseudomonas aeruginosa (setting [12]) was 0.25 micrograms/mL. For the same molecule, in the assay with Pseudomonas aeruginosa (setting [13]), the “MIC P. aeruginosa CCUG 59626” value is listed as 0.125 micrograms/mL.
